Reference: article PMC11123961, “Design, Synthesis, and Biological Evaluation of the Quorum-Sensing Inhibitors of Pseudomonas aeruginosa PAO1” (Molecules, 2024)

What was measured:
C. violaceum CV026 QS = assay: Half-maximal inhibitory concentration against C. violaceum CV026 QS (suppression of violacein production); type: cell-based; details: Chromobacterium violaceum; C6-HSL-induced violacein production, 12 h; mean ± SD of three independent tests; read-out: IC50, anti-CV026 QS activity
From the text: In the exploration of the QS inhibitions, C. violaceum CV026, a mini-T5 mutant of C. violaceum ATCC31532, is frequently employed as a biosensor strain. Because C. violaceum CV026 lacks the CviI gene, which directs the synthesis of AHLs, it is unable to manufacture violacein on its own. The violacein reaction can be induced in C. violaceum CV026 by adding exogenous C6-HSL [27]. As a result, the violacein reaction in C. violaceum CV026 can be used to assess the compounds’ suppression of QS, as used in this investigation.
3.2.2. The Half-Maximal Inhibitory Concentration (IC50) of Compounds against C. violaceum CV026 QS [36]
Subsequently, the log phase of C. violaceum CV026 was placed in a 12-well plate (2 mL/well) after being diluted 10-fold with fresh LB medium. The experimental group received 15 μL of the diluted inducer C6-HSL (0.125 mM), and 8 μL of each dilution gradient compound was added to each well, while the positive control group received 8 μL of C10-HSL, and the blank control group received 8 μL of LB medium. The plates were incubated at 30 °C and 130 rpm for 12 h. After centrifuging 1 mL of the culture for 10 min at 11,255 g, the supernatant was discarded. After dissolving the violacein with 500 μL of DMSO, the mixture was centrifuged once more at 11,255 g for 10 min. In order to measure the absorbance at 585 nm, 200 μL of the upper pigment was added to a 96-well plate. The IC50 was calculated using GraphPad Prism 5 according to the formula (absorbance at 585 nm of the test concentration/the absorbance of the control at 585 nm × 100%).

[1] = test system: P. aeruginosa PAO1 swarming motility; assay: Swarming motility analysis; type: cell-based, Pseudomonas aeruginosa; details: 40 μM, 81.25 μM and 162.5 μM, swarming agar plates
Method: 3.2.6. Swarming Motility Analysis
After being inoculated into LB medium, P. aeruginosa PAO1 was cultivated at 37 °C and 150 rpm until OD600 = 1.0. Then, 1 μL of P. aeruginosa PAO1 bacterial medium was inoculated into the center of swarming solid medium (0.8% nutrient broth (BD), 0.5% glucose, 0.3% agar (BD)) and cultured at 30 °C for 16 h. Then, the colonies of the swarming plate were picked and added to the center of the cooled swarming solid medium (0.8% nutrient broth (BD), 0.5% glucose, 0.5% agar (BD)), which had been supplemented with compounds and cultured at 30 °C for 24 h.

[2] = test system: P. aeruginosa PAO1 biofilms; assay: Biofilm quantification, crystal violet assay; type: cell-based, Pseudomonas aeruginosa; details: Pseudomonas aeruginosa, PAO1
Method: 3.2.3. Biofilm Quantification Assays
The crystal violet assay was used to quantitatively analyze the biofilm, as previously described. P. aeruginosa PAO1 log phase was diluted 100 times with fresh LB medium and incubated for 3.5 h at 37 °C and 150 rpm. After that, the P. aeruginosa PAO1 bacterial culture was added to the 96-well plate. P. aeruginosa PAO1 bacterial culture in 90 μL was added to the experimental group, and 10 μL of the test compound at a final concentration of 325 μM, 162.5 μM, 81.25 μM, 40 μM, 20 μM, and 10 μM. Each well received 100 μL of bacterial culture for the control group and 100 μL of fresh LB medium for the blank group. After 20 h of incubation at 37 °C, the bacterial culture was removed from the 96-well plate, and it was dried after three PBS washes. Each well received […] of 0.1% crystal violet (CV) for a 15 min staining period. Each well was washed three times with PBS after the CV was removed. Lastly, each well received 150 μL of 33% glacial acetic acid, and a Biotek multi-function microplate reader was used to measure the absorbance value at 595 nm. The biofilm inhibition rate was calculated as follows = (OD595 blank − OD595 sample)/OD595 blank × 100%.

[3] = test system: P. aeruginosa PAO1 elastase; assay: Elastase quantification (EnzCheck Elastase Assay Kit); type: cell-based, Pseudomonas aeruginosa
Method: The method previously described was used to perform the elastase quantification experiment. In LB medium, P. aeruginosa PAO1 was cultivated until the logarithmic growth phase at 37 °C and 150 rpm. […] Elastase activity was detected using the EnzCheckTM Elastase Assay Kit after filtration with a 0.22 μm filter membrane.

P. aeruginosa PAO1 = assay: Growth activity of PAO1 (OD600 growth curve); type: cell-based, Pseudomonas aeruginosa; details: 162.50, 81.25 and 40.00 μM, OD600 over 24 h
Method: 3.2.4. The Growth of the Compound of PAO1 QS Activity Analysis
P. aeruginosa PAO1 in log phase was diluted to OD600 = 0.05 in fresh LB medium. Then, 98 μL of diluted bacterial solution and 2 μL of Y-31 solution were added to the 96-well plate. The final concentration of Y-31 in each well was 162.50 μM, 81.25 μM, and 40.00 μM, respectively. The pores without the compound Y-31 were used as blank controls. The cells were incubated in an incubator at 37 °C for 24 h, and OD600 was measured at 0 h, 2 h, 4 h, 6 h, 8 h, 10 h, 12 h, and 24 h, respectively.

In the case of `O=C(CCCOc1ccc(I)cc1)NN1CCCOC1=O` [Y-31], the IC50 (C. violaceum CV026 QS) is reported as 91.5 ± 3.35 µM, the “Swarming motility compared to the control group” value [1] is reported as “significantly reduced swarming motility” and the inhibition at 40 µM ([2]; 40 μM, read-out: P. aeruginosa PAO1 biofilm inhibition rate) is reported as 40.4%. The inhibition at 20.3125 µM ([2]; concentration 20.3125 (unit not given in Table S1; μM in method), 20 h, read-out: Inhibition ratio of biofilm) was 21.1%, the inhibition at 40.625 µM ([2]; concentration 40.625 (unit not given in Table S1; μM in method), 20 h, read-out: Inhibition ratio of biofilm) was 40.4% and the inhibition at 81.25 µM ([2]; concentration 81.25 (unit not given in Table S1; μM in method), 20 h, read-out: Inhibition ratio of biofilm) was 39.5%. The inhibition at 162.5 µM ([2]; concentration 162.5 (unit not given in Table S1; μM in method), 20 h, read-out: Inhibition ratio of biofilm) was 42.1%, the inhibition at 325 µM ([2]; concentration 325 (unit not given in Table S1; μM in method), 20 h, read-out: Inhibition ratio of biofilm) was 41% and the “Inhibition rate of elastase” value ([3]; 162.5 μM) was 22.7%. The inhibition at 40 µM ([3]; Pseudomonas aeruginosa, PAO1, read-out: Inhibition rate of elastase, 40 μM) was 11.3%, the inhibition at 81.5 µM ([3]; Pseudomonas aeruginosa, PAO1, read-out: Inhibition rate of elastase, 81.5 μM) was 20% and the inhibition at 162.5 µM ([3]; Pseudomonas aeruginosa, PAO1, read-out: Inhibition rate of elastase, 162.5 μM) was 22.7%. The “Inhibition of the growth activity of PAO1” value (P. aeruginosa PAO1) was “no significant inhibition”.
